In patent publication US4248865A, “Novel aminoglycoside derivatives” (Shionogi & Co., Ltd., priority 1978, dated 1981):
In brackets after ≈: the same amount, converted by molar mass.

How the values were obtained:
[1] = test system: Pseudomonas aeruginosa PP-6; assay: MIC by agar dilution method, Pseudomonas aeruginosa PP-6; conditions: PP6, read-out: Minimum Inhibitory Concentration (MIC)
Description: (§1) MIC was determined by the following agar dilution method.
(§2) One loopful of a strain of bacteria to be tested on agar slant was inoculated into a medium for growth of inoculum (Trypto Soy Broth; Eiken Chemical Co.) and incubated at 37° C. overnight.
(§3) A sample solution of aminoglycoside derivative was subjected to serial two-fold dilutions with sterile water. This diluted sample solutions were distributed to the Modified Mueller Hinton Agar medium (Nissui-seiyaku Co.), mixed gently and allowed to solidify.
(§4) One loopful of the bacterial suspension prepared in (1) was placed on the surface of the medium prepared in (2) containing the aminoglycoside derivative in various concentrations at 10^6 CFU/ml inoculum size.

[2] = test system: Klebsiella pneumoniae K1-168; assay: MIC by agar dilution method, Klebsiella pneumoniae K1-168; conditions: K1168, read-out: Minimum Inhibitory Concentration (MIC)
Description: as §1, §2, §3, §4

[3] = test system: Escherichia coli W-677/JR 762; assay: MIC by agar dilution method, Escherichia coli W-677/JR 762; conditions: W677/JR762, read-out: Minimum Inhibitory Concentration (MIC)
Description: as §1, §2, §3, §4

NC[C@H]1O[C@H](O[C@H]2[C@H](O)[C@@H](O[C@H]3O[C@H](CO)[C@@H](O)[C@H](N)[C@H]3O)[C@H](N)C[C@@H]2N)[C@H](N)C[C@@H]1O [TOB, tobramycin, reference compound]
MIC [1]: > 100 µg/mL | MIC [2]: 100 µg/mL (≈ 214 µM) | MIC [3]: 50 µg/mL (≈ 107 µM)

NC[C@H]1O[C@H](O[C@H]2[C@H](O)[C@@H](O[C@H]3O[C@H](CO)[C@@H](O)[C@H](N)[C@H]3O)[C@H](NC3=NCC[C@@H]3O)C[C@@H]2N)[C@H](N)C[C@@H]1O [[A], 1N-[(S)(-)-3-hydroxy-1-pyrrolin-2-yl]tobramycin]
MIC [1]: 3.1 µg/mL (≈ 5.63 µM) | MIC [2]: 3.1 µg/mL (≈ 5.63 µM) | MIC [3]: 12.5 µg/mL (≈ 22.7 µM)

NC[C@H]1O[C@H](O[C@H]2[C@H](O)[C@@H](O[C@H]3O[C@H](CO)[C@@H](O)[C@H](N)[C@H]3O)[C@H](NC3=NCCC[C@@H]3O)C[C@@H]2N)[C@H](N)C[C@@H]1O [[B], 1N-[(S)(-)-3-hydroxy-3,4,5,6-tetrahydropyridin-2-yl]tobramycin]
MIC [1]: 6.2 µg/mL (≈ 11 µM) | MIC [2]: 3.1 µg/mL (≈ 5.49 µM) | MIC [3]: 12.5 µg/mL (≈ 22.1 µM)
